Usually IC50 stands for the midpoint of a concentration-inhibition curve. A high value points to a need for much substance.

In test [1] the target is T1, IRAK4 (Homo sapiens, UniProt Q9NWZ3).
T1 sequence (Q9NWZ3 1-460): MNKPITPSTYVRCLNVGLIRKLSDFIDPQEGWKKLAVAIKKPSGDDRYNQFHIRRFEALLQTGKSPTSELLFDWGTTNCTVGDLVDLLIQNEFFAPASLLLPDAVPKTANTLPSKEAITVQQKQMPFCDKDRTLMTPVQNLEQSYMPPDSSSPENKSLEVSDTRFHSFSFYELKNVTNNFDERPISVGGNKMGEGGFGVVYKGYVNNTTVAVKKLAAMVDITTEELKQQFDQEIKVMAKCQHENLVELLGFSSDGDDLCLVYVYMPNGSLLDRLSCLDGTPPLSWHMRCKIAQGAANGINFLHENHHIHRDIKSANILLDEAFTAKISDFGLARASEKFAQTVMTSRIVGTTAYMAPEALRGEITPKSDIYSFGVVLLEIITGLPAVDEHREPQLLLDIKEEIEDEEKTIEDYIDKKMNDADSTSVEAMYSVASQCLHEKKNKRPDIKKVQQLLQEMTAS
The test is described as follows: 2-hour 1 mM ATP IRAK4 Biochemical assay (as above, but with 100 pM IRAK4 and 1 mM ATP). Particulars: IRAK4 MSD BIOCHEMICAL (1 mM ATP) IC50 (μM), 100 pM IRAK4, 2 hours. In a few lines: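 Run with 100 pM IRAK4 and 1 mM ATP for 2 hours, quenched with EDTA pH 8. Phosphorylated biotinylated peptide captured on streptavidin MSD plates and detected with anti-phosphothreonine antibody plus Sulfo-Tag secondary by electrochemiluminescence.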

Test [2] addresses T1, IRAK4. In words: 2-hour 10 μM ATP Biochemical Assay (MesoScale Detection format; IRAK4 phosphorylation of biotin labeled IRAK1 activation loop peptide). The settings on record: IRAK4 MSD BIOCHEMICAL (10 μM ATP) IC50 (μM), 1 nM IRAK4, 2 hours. In a few lines:
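Kinase reaction run 2 h at 10 μM ATP with biotinylated IRAK1 activation-loop peptide, quenched with EDTA. Phospho-peptide captured on streptavidin MSD plates and detected with anti-phosphothreonine rabbit antibody plus Sulfo-Tag anti-rabbit electrochemiluminescence.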

Each structure is given as a SMILES string.

In the case of `COc1cc(NC(=O)c2cccc(C(F)F)n2)cn2cc(C3CCOCC3)nc12` [Example 304, 6-(difluoromethyl)-N-(8-methoxy-2-(tetrahydro-2H-pyran-4-yl)imidazo[1,2-a]pyridin-6-yl)picolinamide], the IC50 in test [1] was 0.013 µM; in test [2], 0.006 µM.

Consider `CCOc1cc2nc(C3C[C@@H](C)O[C@@H](C)C3)cn2cc1NC(=O)c1cccc(C(F)(F)F)n1` (relative stereo) [Example 250, N-(2-((2R*,6S*)-2,6-dimethyltetrahydro-2H-pyran-4-yl)-7-ethoxyimidazo[1,2-a]pyridin-6-yl)-6-(trifluoromethyl)picolinamide], for which the IC50 in test [1] and in test [2] was 0.001 µM each time.

As to `CCOc1cc2nc(C3(F)CC3)cn2cc1NC(=O)c1cccc(C(F)F)n1` [Example 111, 6-(difluoromethyl)-N-(7-ethoxy-2-(1-fluorocyclopropyl)imidazo[1,2-a]pyridin-6-yl)picolinamide], the IC50 in test [1] came to 0.003 µM; in test [2], 0.002 µM.

Consider `CCOc1cc2nc(C3CCOCC3)cn2cc1NC(=O)c1cccc(OC2CC2)n1` [Example 361, 6-cyclopropoxy-N-(7-ethoxy-2-(tetrahydro-2H-pyran-4-yl)imidazo[1,2-a]pyridin-6-yl)picolinamide], for which the half-inhibitory concentration (IC50) amounted to 0.01 µM in test [1] and 0.002 µM in test [2].

With `CCOc1cc2nc(C3CCOCC3)cn2cc1NC(=O)c1cccc(C(F)CF)n1` (centres unmarked) [Example 239, 6-(1,2-difluoroethyl)-N-(7-ethoxy-2-(tetrahydro-2H-pyran-4-yl)imidazo[1,2-a]pyridin-6-yl)picolinamide], the figures for the IC50 in test [1] and in test [2] were 0.003 µM and 0.002 µM, respectively.

For `CC1(COc2cc3nc(C[C@H]4CCOC4)cn3cc2NC(=O)c2cccc(C(F)(F)F)n2)COC1` (single isomer, unassigned) [Example 165], the half-maximal inhibitory concentration (IC50) in test [1] is 0.006 µM; in test [2], 0.002 µM.

On to `CCOc1cc2nc([C@@H](C)[C@@H]3CCOC3)cn2cc1NC(=O)c1cccc(C(F)(F)F)n1` (single isomer, unassigned) [Example 140], for which the IC50 in test [1] and in test [2] was 0.001 µM each time.

With `CCOc1cc2nc(C3CCOCC3)cn2cc1NC(=O)c1cccc(COC)n1` [Example 364, N-(7-ethoxy-2-(tetrahydro-2H-pyran-4-yl)imidazo[1,2-a]pyridin-6-yl)-6-(methoxymethyl)picolinamide], the IC50 in test [1] came to 0.013 µM; in test [2] it was 0.004 µM.

Consider `CCOc1cc2nc(C3CCOCC3)cn2cc1NC(=O)c1cccc(OC(F)F)n1` [Example 362, 6-(difluoromethoxy)-N-(7-ethoxy-2-(tetrahydro-2H-pyran-4-yl)imidazo[1,2-a]pyridin-6-yl)picolinamide], for which the 50% inhibitory concentration (IC50) in test [1] turned out to be 0.017 µM; in test [2], 0.006 µM.

As for `CCOc1cc2nc(C3CCOCC3)cn2cc1NC(=O)c1ccn(C(C)C)n1` [Example 206, N-(7-ethoxy-2-(tetrahydro-2H-pyran-4-yl)imidazo[1,2-a]pyridin-6-yl)-1-isopropyl-1H-pyrazole-3-carboxamide], the half-inhibitory concentration (IC50) was 0.019 µM in test [1] and 0.005 µM in test [2].

For the compound `CCOc1cc2nc(C3CCCC(OC)C3)cn2cc1NC(=O)c1cccc(C(F)F)n1` (centres unmarked) [Example 256, 6-(difluoromethyl)-N-(7-ethoxy-2-(3-methoxycyclohexyl)imidazo[1,2-a]pyridin-6-yl)picolinamide], the IC50 in test [1] and in test [2] was 0.001 µM each time.

With `CCOc1cc2nc(CC3CCOC3)cn2cc1NC(=O)c1ccn(CC(F)F)n1` (centres unmarked) [Example 125, 1-(2,2-difluoroethyl)-N-(7-ethoxy-2-((tetrahydrofuran-3-yl)methyl)imidazo[1,2-a]pyridin-6-yl)-1H-pyrazole-3-carboxamide], the values for the half-maximal inhibitory concentration (IC50) in test [1] and in test [2] were 0.01 µM and 0.004 µM, respectively.

With `CCOc1cc2nc(CO)cn2cc1NC(=O)c1cccc(C(F)(F)F)n1` [Example 18, N-(7-ethoxy-2-(hydroxymethyl)imidazo[1,2-a]pyridin-6-yl)-6-(trifluoromethyl)picolinamide], the IC50 was found to be 0.014 µM in test [1] and 0.004 µM in test [2].
